“Also recorded” adds a separate entry of the source.
Assay: Relative stability of crystalline polymorphs (DSC, x-ray powder diffraction)
Assay type: physicochemical
Conditions: non-solvated crystalline forms of 4,7β-dimethyl-4-aza-5α-cholestan-3-one
Protocol: The crystallinity of each batch was determined primarily from Differential Scanning Calorimetry (DSC) employing a DuPont Model 910 Thermal Analyzer. However, any other reliable means may be employed to determine the crystallinity of a sample, such as x-ray powder diffraction, solid state NMR, or polarizing microscopy.
Generally, a DSC sample was prepared by weighing. 10 to 30 mg of material into a DSC cup and crimping the cup closed. Preferably, each DSC sample was run as soon as possible after preparation, most preferably within 15 minutes of preparation, because crystallinity increases with aging. Generally, samples were heated at a rate of 10° C./min from 10° C. to 100° C. under nitrogen. The DSC peaks were integrated and the measured heat of formation was divided by 46.6 J/g (the average heat of formation of samples confirmed by x-ray diffraction to contain no Form II) to calculate the percent crystallinity of the sample. The term percent crystallinity refers to the weight percent of 4,7β-dimethyl-4-aza-5α-cholestan-3-one sample weight in Form I.
X-ray diffraction was also employed to confirm DSC results. […] This method was not employed for quantitative analysis of the degree of crystallinity.

With `CC(C)CCC[C@@H](C)[C@H]1CC[C@H]2[C@@H]3[C@@H](C)C[C@H]4N(C)C(=O)CC[C@]4(C)[C@H]3CC[C@]12C` [Form I, 4,7β-dimethyl-4-aza-5α-cholestan-3-one] the polymorph stability was “more stable, energetically favored polymorph”.
In the case of `CC(C)CCC[C@@H](C)[C@H]1CC[C@H]2[C@@H]3[C@@H](C)C[C@H]4N(C)C(=O)CC[C@]4(C)[C@H]3CC[C@]12C` [Form II, 4,7β-dimethyl-4-aza-5α-cholestan-3-one], the polymorph stability is reported as “transforms to Form I with time and/or mechanical manipulation; also recorded: less energetically favored polymorph”.

Reference: patent US5585383A, “Process for crystallizing a 4-azasteroid 5alpha-reductase inhibitor” (Merck & Co., Inc., priority 1995, dated 1996)
